This is an account of results in PubChem BioAssay AID1996.

Converted amounts (≈) assume the structure as drawn.

The conditions of the data set: buffer; pH 7.4; 200.0 µM.
For `COc1ccc(C2SCC(=O)N2c2ccc(OC)cc2)cc1` (stereo not given), the kinetic solubility is 45.7 µg/mL (≈ 145 µM).
Next, `O=C(O)C1(Cc2nc3ccccc3[nH]2)CCCC1`: 26.8 µg/mL (≈ 110 µM); `CC(C)COc1cccc(C(=O)NC2(C)CCS(=O)(=O)C2)c1` (stereo not given): more than 48.8 µg/mL.
In the case of `O=C(NC(=O)c1ccccc1F)OCc1ccc(Cl)cc1Cl`, the solubility (kinetic) is less than 0.7 µg/mL.
The result for `O=C(c1ccco1)N1CCN(c2ccc([N+](=O)[O-])cc2Cl)CC1` reads 3.8 µg/mL (≈ 11.3 µM); that for `Cc1ccc(CNc2ccc(N3CCOCC3)c(Cl)c2)cc1`, 1.7 µg/mL (≈ 5.37 µM); that for `COc1ccc(NC(=O)C(=O)NCCCn2ccnc2)cc1`, 43.1 µg/mL (≈ 143 µM).
Next, `CCOc1ccccc1CNCc1ccc(F)cc1.Cl`: 43.8 µg/mL; `CC1(C)C(=O)Nc2ccccc2N1C(=O)COC(=O)c1cccc(O)c1`: 20.3 µg/mL (≈ 57.3 µM); `O=C(/C=C/c1ccccc1Cl)OCC(=O)c1ccc[nH]1`: 6.3 µg/mL (≈ 21.7 µM).
As for `CC(=O)c1sc(NC(=O)c2ccc(C(C)(C)C)cc2)nc1C`, the kinetic solubility was less than 0.3 µg/mL.
The result for `O=C(COc1ccccc1[N+](=O)[O-])Nc1cc(Cl)ccc1C(=O)O` reads more than 52.6 µg/mL.
Next, `CC(C)(C)c1ccc(Oc2ccc(N)cn2)cc1`: more than 36.3 µg/mL.
The result for `O=C1CCCC(=O)N1c1ccc(NCCOCCO)c([N+](=O)[O-])c1` reads more than 50.6 µg/mL.
Turning to `O=C(NC1CCOc2ccccc21)C1CCCC1` (stereo not given), the solubility (kinetic) was more than 36.8 µg/mL.
Next, `CN1C(=O)C(O)(C2CCCCCC2=O)c2ccccc21` (stereo not given): more than 41 µg/mL; `CSc1ccc(S(=O)(=O)N2CC(=O)Nc3ccccc32)cc1`: 14.4 µg/mL (≈ 43.1 µM); `CC(C)C(=O)N1CCN(c2ccccc2NC(=O)c2ccco2)CC1`: 48 µg/mL (≈ 141 µM).
Regarding `Cc1cc(C(F)(F)F)nc(SCCN2CCOCC2)c1C#N`, the kinetic solubility was found to be 43.3 µg/mL (≈ 131 µM).
Take `Cc1c(C(=O)OCC(=O)N2CCCC2)cccc1[N+](=O)[O-]`: the kinetic solubility is more than 43.8 µg/mL.
In turn, `CN(C)c1ccc(C2NC(=O)c3ccccc3N2)cc1` (stereo not given) showed a solubility (kinetic) of 8.8 µg/mL (≈ 32.9 µM).
Next, `O=C(NC1CC2CCCC(C1)N2C(=O)Nc1ccccc1)C1CC1` (stereo not given): 4.2 µg/mL (≈ 12.8 µM); `CC(=O)c1ccc(Nc2c([N+](=O)[O-])ccc3nonc23)cc1`: less than 0.2 µg/mL; `CCc1ccc2[nH]c(C)c(CN3CCCCCC3)c(=O)c2c1`: more than 44.8 µg/mL.
The result for `COC(=O)C(C(=O)OC)c1ncc(C(F)(F)F)cc1Cl` reads 41.1 µg/mL (≈ 132 µM).
Next, `Cc1cccc(C(=O)Nc2ccc3ccccc3c2)c1`: less than 0.6 µg/mL.
With `Cc1ccc(NC(=O)C(=O)NCC2CCCO2)cc1C` (stereo not given), the kinetic solubility was more than 41.5 µg/mL.
The result for `CC(C)(C)c1cc(NC(=O)Nc2ccc(Cl)cc2Cl)no1` reads less than 0.2 µg/mL; that for `Cl.c1ccc(SCCOCCN2CCOCC2)cc1`, 43.4 µg/mL; that for `COc1ccc(C(C)NC(=O)C2CCCC2)cc1` (stereo not given), more than 37.1 µg/mL.
For the molecule `CSc1nc(C)cc(Oc2ccc(OCC(N)=O)nn2)n1`, the kinetic solubility is more than 46.1 µg/mL.
The result for `C=CCSc1nsc(NC(=O)Nc2cccc(C(C)=O)c2)n1` reads 1.9 µg/mL (≈ 5.68 µM).
The result for `COc1cccc(N2CCN(C(=O)CSc3ccc(F)cc3)CC2)c1` reads 50.2 µg/mL (≈ 139 µM); that for `CCN(CC)S(=O)(=O)c1ccc(NC(=S)NC(=O)C2CCC2)cc1`, 18.7 µg/mL (≈ 50.6 µM); that for `O=[N+]([O-])c1ccc(S(=O)(=O)Nc2ncccn2)cc1`, more than 42 µg/mL.
In turn, `COc1cc(OC)cc(C(=O)Nc2cccc3c2CCCC3)c1` gave a solubility (kinetic) of less than 0.7 µg/mL.
Next, `N#CC1=C(N)N2C(=C(C#N)C13CCCC3)Nc1ccccc12`: 36.9 µg/mL (≈ 128 µM).
The result for `O=C(NCc1ccccc1)Nc1cccc2ccccc12` reads 0.6 µg/mL (≈ 2.17 µM).
Next, `COc1ccc(OC)c(CNc2c(C=O)c(=O)[nH]c3ccccc23)c1`: less than 0.4 µg/mL; `COc1ccc(OC)c(Nc2nc(N)nc(CCl)n2)c1`: 22.4 µg/mL (≈ 75.7 µM).
In turn, `Cc1nc(-c2ccc(NC(=O)C(C)(C)C)cc2)c(-c2ccccc2)o1` registered a kinetic solubility of 0.8 µg/mL (≈ 2.39 µM).
The result for `O=C(O)CCSc1ncnc2sc(-c3ccccc3)cc12` reads more than 47.5 µg/mL; that for `Cc1cccc(NC(=O)Nc2ccccc2)n1`, 2.5 µg/mL (≈ 11 µM).
The result for `COCCCn1c(=O)cc(C)[nH]c1=S` reads more than 32.1 µg/mL; that for `Cc1ccc(C(=O)O/N=C(\N)Cc2ccc([N+](=O)[O-])cc2)c(Cl)c1`, 3.9 µg/mL (≈ 11.2 µM); that for `Cc1ccccc1C(=O)N1CCC(C(=O)N2CCN(Cc3ccc4c(c3)OCO4)CC2)CC1`, 59.1 µg/mL (≈ 131 µM).
The result for `CCOc1nc(CC(C)C)c2c(c1C#N)CC(C)(C)OC2` reads 2.4 µg/mL (≈ 8.32 µM).
In the case of `COc1ccc(/C=C2\C(=O)NCC(=O)N2C)cc1`, the kinetic solubility amounted to 11.4 µg/mL (≈ 46.3 µM).
With `S=C1N[C@H]2CCCC[C@@H]2N1`, the kinetic solubility stood at 20.8 µg/mL (≈ 133 µM).
The result for `O=C(COc1ccc(Br)cc1F)NC1CC1` reads more than 43.2 µg/mL.
The result for `CCCN1CCN(C(=O)CCCNC(=O)c2ccc(Cl)cc2)CC1` reads more than 52.8 µg/mL.
The result for `Cc1cccc(N=C2C(=O)Nc3c(Cl)cccc32)c1` reads 32.4 µg/mL (≈ 120 µM); that for `CCC1(c2ccc(F)cc2)NC(=O)NC1=O` (stereo not given), 28.5 µg/mL (≈ 128 µM).
For `COc1ccccc1C(=O)N/C(=C\c1ccccc1)C(=O)NC(C)C(=O)O` (stereo not given), the solubility (kinetic) turned out to be 52.2 µg/mL (≈ 142 µM).
The result for `O=C(O)c1ccccc1C(=O)NC1Cc2ccccc2C1` reads 42.1 µg/mL (≈ 150 µM); that for `Cc1ccccc1NC(=O)c1ccc2nccnc2c1`, 37.3 µg/mL (≈ 142 µM).
The result for `O=C(NCCNC1CCCCC1)c1ccco1` reads 26.2 µg/mL (≈ 111 µM).
Molecule `COc1ccc(CNC(=O)COC(=O)c2ccccn2)cc1` returned a solubility (kinetic) of more than 45 µg/mL.
As for `Clc1ccccc1/C=C/c1nc(-c2cccnc2)no1`, the kinetic solubility is 0.8 µg/mL (≈ 2.82 µM).
Next, `O=c1[nH]c2ccc(S(=O)(=O)N3CCCC3)cc2[nH]1`: more than 40.1 µg/mL; `CO/N=C(\C)C(Cc1ccc(Cl)nc1)Cc1ccc(Cl)nc1`: more than 50.7 µg/mL.
`C[C@@H]1CN(Cc2nc(-c3ccc(Cl)cc3)no2)C[C@H](C)O1` gave a kinetic solubility of 44 µg/mL (≈ 143 µM).
Take `COc1ccc(NC(=S)N2CCc3cc(OC)c(OC)cc3C2)cc1`: the solubility (kinetic) turned out to be 1.5 µg/mL (≈ 4.18 µM). This solubility kinetic is about 29-fold lower than that of the molecule before.
The result for `O=C(NCCc1ccc(F)cc1)c1ccc([N+](=O)[O-])cc1` reads 4.6 µg/mL (≈ 16 µM).
Next, `COc1ccccc1NC(=O)c1ccc2[nH]c(C)c(C)c2c1`: 2.1 µg/mL (≈ 7.13 µM); `Cc1ccc2cc(NC(=O)c3cccc(F)c3)ccc2n1`: 28.6 µg/mL (≈ 102 µM); `CC1CCCCC1NC(=O)C(C)N1C(=O)c2ccccc2C1=O` (stereo not given): more than 47.2 µg/mL.
Next, `Cc1csc(SCC(=O)NC(=O)NCCC(C)C)n1`: 22.6 µg/mL (≈ 75 µM); `O=C(CSc1nnc2ccccn12)c1ccc(Cl)cc1`: more than 45.6 µg/mL; `COc1cc2c(cc1OC)CN(C(=O)c1cc(Cl)nc(Cl)c1)CC2`: 27 µg/mL (≈ 73.5 µM).
As to `O=C(Nc1ccccc1[N+](=O)[O-])C1(c2ccccc2)CCOCC1`, the solubility (kinetic) is 42.3 µg/mL (≈ 130 µM).
Next, `O=C(CNC(=O)c1ccccc1F)N/N=C/c1ccco1`: more than 43.4 µg/mL; `O=C(O)c1cc(S(=O)(=O)N2CCCCC2)ccc1N1CCCC1`: more than 50.8 µg/mL; `Cc1nc2ccc(NC(=O)c3cc(Cl)ccn3)cc2s1`: 4.9 µg/mL (≈ 16.1 µM).
In turn, `CSc1ccccc1NC(=O)CN(C)C(C)C(=O)NCc1ccc2c(c1)OCO2` (stereo not given) had a solubility (kinetic) of 16 µg/mL (≈ 38.5 µM).
As for `COc1ccc(/C(C)=N/NC(=O)CNC(=O)c2ccco2)cc1`, the solubility (kinetic) is more than 47.3 µg/mL.
Next, `COc1cccc2[nH]c(C(=O)NC(C)c3ccccc3)cc12` (stereo not given): more than 44.2 µg/mL; `CCCCn1c(C)c(C(=O)O)c2cc(OC)c3ccccc3c21`: 2.9 µg/mL (≈ 9.31 µM); `CCOc1ccc(NC(=O)CCn2ccnc2)cc1`: more than 38.9 µg/mL.
Turning to `Cc1ccc(C(=O)OCC(=O)N(Cc2ccccc2)C(C)C)cc1C`, the solubility (kinetic) was 16.8 µg/mL (≈ 49.5 µM).
In turn, `CCOC(=O)N1CCN(C(=O)COC(=O)c2ccc(Cl)nc2)CC1` showed a solubility (kinetic) of more than 53.4 µg/mL.
The result for `[Br-].c1ccc(-c2c[n+]3c(n2-c2ccccc2)SCC3)cc1` reads more than 53.9 µg/mL.
Next, `Cc1ccc(NC(=O)Nc2cnccn2)cc1C`: 9.5 µg/mL (≈ 39.2 µM); `O=C(Oc1ccccc1N1CCOCC1)c1ccccc1`: 26.3 µg/mL (≈ 92.8 µM).
Next, `Cc1ccc(NC(=O)NC2CCCCCCC2)cc1C`: less than 0.3 µg/mL; `O=C(NCc1cccs1)c1cc(-c2ccc(O)cc2)on1`: 1.7 µg/mL (≈ 5.66 µM).
Molecule `CCOc1ccc(/C=C/c2nc(C#N)c(NCCCOC)o2)cc1` came in with a solubility (kinetic) of 3.4 µg/mL (≈ 10.4 µM).
The result for `CN(C(=S)NC(=O)c1ccc(Cl)cc1)C1CCCCC1` reads 6.4 µg/mL (≈ 20.6 µM).
The molecule `O=C(NC(=S)NCc1nc2ccccc2[nH]1)c1ccc(F)cc1` came in with a kinetic solubility of 45.3 µg/mL (≈ 138 µM).
Next, `CCc1cccc(NS(=O)(=O)c2cccc3cccnc23)c1`: 1 µg/mL (≈ 3.2 µM).
Next, `N#Cc1ccc(N2CCCNCC2)nc1`: more than 30.3 µg/mL.
Next, `Cn1c(SCc2cccc(C#N)c2)nc2ccccc2c1=O`: 0.4 µg/mL (≈ 1.3 µM); `CC(=O)c1ccc(OCC(=O)OC(C)C(=O)NC2CCCCC2)cc1` (stereo not given): more than 52.1 µg/mL; `O=C(Nc1ccon1)Nc1cc(Cl)ccc1Cl`: 1.4 µg/mL (≈ 5.15 µM).
As for `Cc1cccc(N2CCc3c2nc2ccc(Br)cc2c3N)c1.Cl`, the kinetic solubility came to 0.6 µg/mL.
Next, `COCC(=O)OCc1cc2cccc(C)c2[nH]c1=O`: 38.9 µg/mL (≈ 149 µM); `O=C(O)/C(=N/NC(=O)c1ccc(Cl)cc1)c1ccccc1`: more than 45.4 µg/mL; `CCC(=O)OCCNc1nc(-c2ccccc2)nc2ccccc12.Cl`: 5.3 µg/mL.
Next, `N#C/C(=C\N1CCOCC1)S(=O)(=O)c1ccc(Cl)cc1`: 45 µg/mL (≈ 144 µM); `O=C(O)[C@H](Cc1ccccc1)NC(=O)N1CCCCCC1`: more than 43.6 µg/mL; `CC(C)CNC(=O)COC(=O)c1ccc(F)cc1Cl`: more than 43.2 µg/mL.
`CC(Cl)C(=O)c1c[nH]c2ccccc12` (stereo not given) came in with a solubility (kinetic) of 21.4 µg/mL (≈ 103 µM).
The result for `Cc1ccc(NC(=O)CCN2CCN(C)CC2)cc1.Cl` reads 36.9 µg/mL.
Next, `O=C(Nc1ccc(Br)c(Br)c1)C1CCCO1` (stereo not given): 38.8 µg/mL (≈ 111 µM).
The result for `O=C(O)c1ccc2c(c1)C(=O)N(c1cc([N+](=O)[O-])ccn1)C2=O` reads more than 47 µg/mL.
